Measured values as given in ChEMBL document CHEMBL1138130, “Synthesis and antibacterial activity of 3-O-acyl-6-O-carbamoyl erythromycin A derivatives” (2006).
Values after ≈ are worked out from the molar mass of the structure shown.

What was measured:
Format in all cases: functional
[1] = system: Haemophilus influenzae; experiment: Antibacterial activity against Haemophilus influenzae OC4882
[2] = system: Streptococcus pneumoniae; experiment: Antibacterial activity against erm(B) ribosomal methylase gene containing Streptococcus pneumoniae OC4051
[3] = system: Staphylococcus aureus; experiment: Antibacterial activity against Staphylococcus aureus OC4172
[4] = system: Streptococcus pneumoniae; experiment: Antibacterial activity against Streptococcus pneumoniae OC9132
[5] = system: Streptococcus pneumoniae; experiment: Antibacterial activity against Mef(A) efflux pump containing Streptococcus pneumoniae OC4438

Structure (SMILES) | MIC [1] [µg/mL] | MIC [2] [µg/mL] | MIC [3] [µg/mL] | MIC [4] [µg/mL] | MIC [5] [µg/mL]
CC[C@H]1OC(=O)[C@H](C)[C@@H](OC(=O)NC2CCCCC2)[C@H](C)[C@@H](O[C@@H]2O[C@H](C)C[C@H](N(C)C)[C@H]2O)[C@](C)(OC(=O)NC/C=C/c2ccc(-c3ncccn3)cc2)C[C@@H](C)C(=O)[C@H](C)[C@H]2NC(=O)O[C@@]21C | 16 (≈ 16.6 µM) | 4 (≈ 4.15 µM) | 1 (≈ 1.04 µM) | 0.12 (≈ 0.125 µM) | 0.25 (≈ 0.26 µM)
CC[C@H]1OC(=O)[C@H](C)[C@@H](OC(=O)CC2CC2)[C@H](C)[C@@H](O[C@@H]2O[C@H](C)C[C@H](N(C)C)[C@H]2O)[C@](C)(OC(=O)NC/C=C/c2ccc(-c3ncccn3)cc2)C[C@@H](C)C(=O)[C@H](C)[C@H]2NC(=O)O[C@@]21C | 16 (≈ 17.4 µM) | 0.12 (≈ 0.13 µM) | 1 (≈ 1.09 µM) | 0.06 (≈ 0.0652 µM) | 0.12 (≈ 0.13 µM)
CC[C@H]1OC(=O)[C@H](C)[C@@H](OC(=O)N(CC)Cc2cccnc2)[C@H](C)[C@@H](O[C@@H]2O[C@H](C)C[C@H](N(C)C)[C@H]2O)[C@](C)(OC(=O)NC/C=C/c2ccc(-c3ncccn3)cc2)C[C@@H](C)C(=O)[C@H](C)[C@H]2NC(=O)O[C@@]21C | 16 (≈ 16 µM) | 0.25 (≈ 0.25 µM) | 0.5 (≈ 0.5 µM) | 0.06 (≈ 0.06 µM) | 0.12 (≈ 0.12 µM)
CC[C@H]1OC(=O)[C@H](C)[C@@H](OC(=O)C(C)C)[C@H](C)[C@@H](O[C@@H]2O[C@H](C)C[C@H](N(C)C)[C@H]2O)[C@](C)(OC(=O)NC/C=C/C=C/c2cccnc2)C[C@@H](C)C(=O)[C@H](C)[C@H]2NC(=O)O[C@@]21C | 4 (≈ 4.67 µM) | 0.25 (≈ 0.292 µM) | 0.5 (≈ 0.583 µM) | 0.06 (≈ 0.07 µM) | 0.12 (≈ 0.14 µM)
CC[C@H]1OC(=O)[C@H](C)[C@@H](OC(=O)CCc2cccnc2)[C@H](C)[C@@H](O[C@@H]2O[C@H](C)C[C@H](N(C)C)[C@H]2O)[C@](C)(OC(=O)NC/C=C/c2ccc(-c3ncccn3)cc2)C[C@@H](C)C(=O)[C@H](C)[C@H]2NC(=O)O[C@@]21C | 8 (≈ 8.24 µM) | 2 (≈ 2.06 µM) | 0.25 (≈ 0.257 µM) | 0.03 (≈ 0.0309 µM) | 0.06 (≈ 0.0618 µM)
CC[C@H]1OC(=O)[C@H](C)[C@@H](OC(=O)Cc2cccnc2)[C@H](C)[C@@H](O[C@@H]2O[C@H](C)C[C@H](N(C)C)[C@H]2O)[C@](C)(OC(=O)NC/C=C/c2cnc3ccccc3c2)C[C@@H](C)C(=O)[C@H](C)[C@H]2NC(=O)O[C@@]21C | 4 (≈ 4.3 µM) | 0.12 (≈ 0.129 µM) | 0.5 (≈ 0.538 µM) | 0.06 (≈ 0.0645 µM) | 0.06 (≈ 0.0645 µM)
CC[C@H]1OC(=O)[C@H](C)[C@@H](OC(=O)C(C)C)[C@H](C)[C@@H](O[C@@H]2O[C@H](C)C[C@H](N(C)C)[C@H]2O)[C@](C)(OC(=O)NC/C=C/c2ccc(-c3ncccn3)cc2)C[C@@H](C)C(=O)[C@H](C)[C@H]2NC(=O)O[C@@]21C | 8 (≈ 8.81 µM) | 0.12 (≈ 0.132 µM) | 0.5 (≈ 0.551 µM) | 0.06 (≈ 0.0661 µM) | 0.12 (≈ 0.132 µM)
CC[C@H]1OC(=O)[C@H](C)[C@@H](OC(=O)C(C)C)[C@H](C)[C@@H](O[C@@H]2O[C@H](C)C[C@H](N(C)C)[C@H]2O)[C@](C)(OC(=O)NC/C=C/c2cnc3ccccc3c2)C[C@@H](C)C(=O)[C@H](C)[C@H]2NC(=O)O[C@@]21C | 4 (≈ 4.54 µM) | 0.06 (≈ 0.0681 µM) | 0.25 (≈ 0.284 µM) | 0.03 (≈ 0.034 µM) | 0.03 (≈ 0.034 µM)
CC[C@H]1OC(=O)[C@H](C)[C@@H](OC(=O)N(CC)CC)[C@H](C)[C@@H](O[C@@H]2O[C@H](C)C[C@H](N(C)C)[C@H]2O)[C@](C)(OC(=O)NC/C=C/c2ccc(-c3cccnn3)cc2)C[C@@H](C)C(=O)[C@H](C)[C@H]2NC(=O)O[C@@]21C | 4 (≈ 4.27 µM) | 0.25 (≈ 0.267 µM) | 0.5 (≈ 0.534 µM) | 0.06 (≈ 0.064 µM) | 0.12 (≈ 0.128 µM)
CC[C@H]1OC(=O)[C@H](C)[C@@H](O[C@H]2C[C@@](C)(OC)[C@@H](O)[C@H](C)O2)[C@H](C)[C@@H](O[C@@H]2O[C@H](C)C[C@H](N(C)C)[C@H]2O)[C@](C)(O)C[C@@H](C)C(=O)[C@H](C)[C@@H](O)[C@]1(C)O [ERYTHROMYCIN] | 8 (≈ 10.9 µM) | > 16 | 0.5 (≈ 0.681 µM) | 0.06 (≈ 0.0818 µM) | 4 (≈ 5.45 µM)
CC[C@H]1OC(=O)[C@H](C)[C@@H](OC(=O)N(CC)CC)[C@H](C)[C@@H](O[C@@H]2O[C@H](C)C[C@H](N(C)C)[C@H]2O)[C@](C)(OC(=O)NC/C=C/c2cnc3ccccc3c2)C[C@@H](C)C(=O)[C@H](C)[C@H]2NC(=O)O[C@@]21C | 4 (≈ 4.4 µM) | 0.12 (≈ 0.132 µM) | 0.5 (≈ 0.549 µM) | 0.06 (≈ 0.0659 µM) | 0.06 (≈ 0.0659 µM)
CC[C@H]1OC(=O)[C@H](C)[C@@H](OC(=O)Cc2cccnc2)[C@H](C)[C@@H](O[C@@H]2O[C@H](C)C[C@H](N(C)C)[C@H]2O)[C@](C)(OC(=O)NC/C=C/C=C/c2cccnc2)C[C@@H](C)C(=O)[C@H](C)[C@H]2NC(=O)O[C@@]21C | 2 (≈ 2.21 µM) | 0.12 (≈ 0.132 µM) | 0.5 (≈ 0.552 µM) | 0.03 (≈ 0.0331 µM) | 0.12 (≈ 0.132 µM)
CC[C@H]1OC(=O)[C@H](C)[C@@H](OC(=O)N(CC)CC)[C@H](C)[C@@H](O[C@@H]2O[C@H](C)C[C@H](N(C)C)[C@H]2O)[C@](C)(OC(=O)NC/C=C/c2ccc(-c3ncccn3)cc2)C[C@@H](C)C(=O)[C@H](C)[C@H]2NC(=O)O[C@@]21C | 8 (≈ 8.54 µM) | 0.12 (≈ 0.128 µM) | 0.5 (≈ 0.534 µM) | 0.06 (≈ 0.064 µM) | 0.06 (≈ 0.064 µM)
